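All cell lines were grown in 96-well plates and treated with compound for 48 hours. TGI denotes the concentration required for complete inhibition of growth.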
What was measured:
Assay in all cases: NCI anticancer screen, dose series, 48 h
MOLT-4 leukemia = test system: MOLT-4 leukemia
DU-145 prostate = test system: DU-145 prostate
RXF 393 renal = test system: RXF 393 renal
UO-31 renal = test system: UO-31 renal
EKVX NSCLC = test system: EKVX NSCLC
T-47D breast = test system: T-47D breast
OVCAR-5 ovarian = test system: OVCAR-5 ovarian
U251 CNS = test system: U251 CNS
HCC-2998 colon = test system: HCC-2998 colon
NCI/ADR-RES ovarian = test system: NCI/ADR-RES ovarian
CCRF-CEM leukemia = test system: CCRF-CEM leukemia

| SMILES | TGI (MOLT-4 leukemia) [µM] | TGI (DU-145 prostate) [µM] | TGI (RXF 393 renal) [µM] | TGI (UO-31 renal) [µM] | TGI (EKVX NSCLC) [µM] | TGI (T-47D breast) [µM] | TGI (OVCAR-5 ovarian) [µM] | TGI (U251 CNS) [µM] | TGI (HCC-2998 colon) [µM] | TGI (NCI/ADR-RES ovarian) [µM] | TGI (CCRF-CEM leukemia) [µM] |
| --- | --- | --- | --- | --- | --- | --- | --- | --- | --- | --- | --- |
| Cc1ccccc1OC(C)C(=O)NN1C(=O)CSC1c1ccc(Cl)cc1 (stereo not drawn) | > 59.7 | > 100 | > 86.9 | > 100 | > 100 | > 100 | > 100 | > 93.4 | > 100 | > 100 |  |
| COc1ccc2nc(-c3ccccc3)cc(OCC(=O)O)c2c1 | > 100 | > 100 |  | 51.3 | > 100 | > 100 | > 100 | > 100 | > 100 | > 100 | > 100 |
| CS(=O)(=O)c1nc(-c2cc3c(c(S(C)(=O)=O)n2)CCCC3)cc2c1CCCCC2 |  | > 100 | > 100 |  | > 100 |  | > 100 | > 100 |  | > 100 | > 100 |
| CC(C)CCC[C@@H](C)[C@H]1CC[C@H]2[C@@H]3CC[C@H]4C[C@@H](CCC=C(c5cc(Cl)c(O)c(C(=O)O)c5)c5cc(Cl)c(O)c(C(=O)O)c5)CC[C@]4(C)[C@H]3CC[C@]12C | > 100 | > 100 | > 100 | > 100 | > 100 | > 100 | > 100 | > 100 | > 100 | > 100 | > 100 |
| O=C(/C=C/c1cccc(Oc2ccccc2)c1)NCc1ccc(C(=O)NCc2ccccc2)cc1 | > 100 | > 100 | 41 | > 100 | > 100 | > 100 | > 100 | > 100 | > 100 | > 100 | > 100 |
| COC(=O)C1Cc2cc3c(cc2C1=O)CCCC3 (stereo not drawn) | > 100 | > 100 |  | > 100 | > 100 | > 100 | > 100 | > 100 | > 100 | > 100 | > 100 |
| CN(C)c1ccc(C=NCC2CCCN3CCCCC23)cc1 (stereo not drawn) |  | > 100 | > 100 | > 100 | > 100 |  | > 100 |  | > 100 | > 100 |  |
| CC(C)(C)OC(=O)NC1CC2(C=C(Br)C(=O)C(Br)=C2)OC1=O (stereo not drawn) | 2.59 | 26.4 | 11.8 | 13.8 | 27.5 | 6.39 | 35.1 | 31.7 | 24.7 | 34.8 |  |
| c1ccc(C(NCC2CCO2)(c2ccccc2)c2ccccc2)cc1 (stereo not drawn) | > 100 | 71.3 | 35 | 25.3 | 30.8 |  | 30.5 | 54 | 30.6 | 28.9 | > 100 |
| O=C(OC1C2OC(=O)c3cc(O)c(O)c(O)c3Oc3cc4c(c(O)c3O)-c3c(cc(O)c(O)c3O)C(=O)OCC3OC(O)C(OC(=O)c5cc(O)c(O)c(O)c5Oc5cc6c(c(O)c5O)-c5c(cc(O)c(O)c5O)C(=O)OC1C(COC6=O)OC2O)C(OC(=O)c1cc(O)c(O)c(O)c1)C3OC4=O)c1cc(O)c(O)c(O)c1 (stereo not drawn) | 12.2 | > 100 | 52.5 | > 100 | 37.9 | > 100 | > 100 |  |  | > 100 | > 100 |
| c1ccc2c(c1)c1c(n2CCOCCN2CCCC2)CCCC1 | 34.3 | 87.2 |  | 43.2 | 75.2 | 61.9 | 35.3 | 25.8 | 30.2 | 44.3 | 51 |
| CC[C@@]1(O)C(=O)OCc2c1cc1n(c2=O)Cc2c-1nc1ccccc1c2/C=N\NC(=O)C1CCCN1 (stereo partly drawn) |  | > 100 | 2.1 | 8.27 | > 100 | > 100 | > 73.2 | 11.2 | > 53.7 | 20.5 | > 100 |
| COC(CN(C(C)=O)C1CCC2(SCCS2)c2[nH]c3ccccc3c21)OC (stereo not drawn) | > 100 | > 100 | > 100 | > 100 | > 100 |  | > 100 | > 100 | > 100 | > 100 | > 100 |
| O=C(O)CCC(=O)c1ccc2c(c1)C(C(=O)O)CC2 (stereo not drawn) | > 100 | > 100 | 23.1 | > 100 | > 100 | > 100 | > 100 | > 100 | > 100 | > 100 |  |
| Cn1c2ccccc2c2c3c(c4c5ccccc5n(C)c4c21)C(=O)NC3=O | > 100 | > 100 | > 22.1 | > 100 | > 100 | > 100 | > 100 | > 51.5 | > 100 | > 100 | > 100 |
| NC(N)=NC(N)=Nc1ccc(S(=O)(=O)O)cc1 |  | > 100 | > 100 | > 100 | > 100 | > 100 | > 100 | > 100 | > 100 | > 100 | > 100 |
| CC(C)(C)OC(=O)N(CCCCNC(=O)OCc1ccccc1)CCCNC(=O)OCc1ccccc1 | 30 | > 100 | > 100 |  | > 100 | > 100 | > 100 | > 100 | > 100 | > 100 | > 100 |
| COc1c(/C=C/C(C)(C)O)cc(C2CC(=O)c3c(O)cc(O)cc3O2)cc1CC=C(C)C (stereo not drawn) | 35 | 17.4 | 15.3 | 1.6 |  | 33.2 | 16.5 | 14.4 | 8.66 | 32 | > 50 |
| OC1(c2ccc(-c3ccccc3)cc2)c2ccccc2C2=NCCN21 (stereo not drawn) | > 100 | > 100 |  | > 100 |  | > 100 |  | > 100 | 40.4 | > 100 | > 100 |
| CN(C)CCNC(=O)c1ccc(NCCCN(C)CCCNc2ccc(C(=O)NCCN(C)C)c3[nH]c4ccccc4c(=O)c23)c2c(=O)c3ccccc3[nH]c12 | 1.09 |  | 1.15 | 1.9 | 0.674 | 1.85 | 0.647 | 0.247 | 0.177 | 16 | 0.406 |
| CSc1ccc(-c2cc(-c3nc4ccccc4[nH]3)no2)cc1 | 37.2 | > 100 |  | 43.5 | > 100 | 37.3 | > 100 |  | 32.1 | 64.1 | > 100 |
